A word on the IC50: it is the concentration at which inhibition is half-maximal. By Kd is commonly meant a measure of binding affinity in units of concentration. A low value points to a tighter complex.

IC50, fold induction and Kd data for seven molecules are collected here from patent US20220324835A1 (Nurix Therapeutics, Inc., priority 2018, published 2022).

The target of test [1] is T1, Cbl-b (Homo sapiens, UniProt Q13191). Put plainly: Cbl-b activity assay (Cbl-b inhibition assay), TR-FRET of Cbl-b interaction with UbcH5B-Ub. The class given is biochemical. The following applies: assay buffer with 100 mM NaCl, 60 nM Src kinase; read-out: Cbl-b activity IC50. The gist of the method: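 UbcH5B (C85K) conjugated to N-terminally Bodipy-Fluorescein-labeled ubiquitin served as the fluorescent partner. After compound preincubation, Src kinase (60 nM) with 1 mM ATP and 5 mM MgCl2 (final) was added for 1.5 h, followed by a further 1 h incubation. Some values were obtained with 50 mM NaCl and 30 nM Src.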
T1 sequence (Q13191 36-427): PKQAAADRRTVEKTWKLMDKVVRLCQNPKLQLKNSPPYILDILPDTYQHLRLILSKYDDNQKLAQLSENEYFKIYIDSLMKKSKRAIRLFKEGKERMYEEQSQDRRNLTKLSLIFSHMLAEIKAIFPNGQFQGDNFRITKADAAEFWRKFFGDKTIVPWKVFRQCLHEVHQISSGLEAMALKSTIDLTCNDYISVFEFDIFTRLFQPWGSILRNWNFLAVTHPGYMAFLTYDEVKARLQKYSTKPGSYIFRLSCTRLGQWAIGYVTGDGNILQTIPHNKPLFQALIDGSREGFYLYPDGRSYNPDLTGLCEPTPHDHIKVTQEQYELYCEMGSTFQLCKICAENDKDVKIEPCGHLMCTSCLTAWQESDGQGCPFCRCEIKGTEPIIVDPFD
A general note: TR-FRET usually uses a lanthanide donor and a delayed reading to cut background.

In test [2] the test system is T-cell. Put plainly: IL-2 secretion from T-cells co-stimulated with anti-CD3 and anti-CD28 antibody (Biological Example 2). The class given is cell-based, human. Conditions: Homo sapiens, T-cell. In short, it runs like this:
(§1)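 T-cells were stimulated with anti-CD3 antibody alone or with anti-CD28 antibody, in the presence or absence of Cbl-b inhibitor. IL-2 secretion or CD25 surface staining was measured, and values expressed as fold over the uninhibited baseline […].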

The next test concerns the target Cbl-b (residues 36-427) (Homo sapiens, UniProt Q13191). Put plainly: Cbl-b binding assay (SPR, Biacore T200). Conditions: 20° C., 1:1 binding model. In short, it runs like this: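 Steps: capture protein on NeutrAvidin surface; inject compound dilutions (8 or 10 points from 100 or 50 μM) 50 s; allow 90-180 s dissociation; regenerate 20 s with 0.3 M NaCl. Runs at 20° C in HEPES pH 7.5/100 mM NaCl/2% DMSO; 1:1 fitting.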

Test [3] relates to T-cell. Put plainly: CD25 cell surface staining on T-cells co-stimulated with anti-CD3 and anti-CD28 antibody (Biological Example 2). Type of test: cell-based, human. The following applies: Homo sapiens, T-cell. In short, it runs like this: as §1
Test [4] deals with T1, Cbl-b. Description: Cbl-b inhibition assay (Cbl-b activity assay, FRET, Biological Example 1; 100 mM NaCl, 60 nM Src kinase). The class given is biochemical. The following applies: upper bound stated in text lists; read-out: IC50 values in the Cbl-b inhibition assay of Biological Example 1. The gist of the method:
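Here, the E2 UbcH5B, irreversibly linked to Bodipy-fluorescein ubiquitin, binds Cbl-b once Src kinase phosphorylates it; Cbl-b carries an N-terminal biotinylated Avi-tag captured by streptavidin-terbium. An absent FRET signal indicates inhibition.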

[5] abbreviates: 0.3 μM compound, primary human total T-cells, baseline = anti-CD3/anti-CD28 stimulated cells without inhibitor, read-out: IL-2 secretion, Anti-CD3/Anti-CD28 stimulation, fold change over baseline.
[6] abbreviates: 1 μM compound, primary human total T-cells, baseline = anti-CD3/anti-CD28 stimulated cells without inhibitor, read-out: IL-2 secretion, Anti-CD3/Anti-CD28 stimulation, fold change over baseline.
[7] abbreviates: 0.3 μM compound, primary human total T-cells, baseline = anti-CD3/anti-CD28 stimulated cells without inhibitor, read-out: CD25 staining, Anti-CD3/Anti-CD28 stimulation, fold change over baseline.
The mark [8] stands for this setting: 1 μM compound, primary human total T-cells, baseline = anti-CD3/anti-CD28 stimulated cells without inhibitor, read-out: CD25 staining, Anti-CD3/Anti-CD28 stimulation, fold change over baseline.
Where [9] appears, read: 0.3 μM Cbl-b inhibitor, fold change over baseline (anti-CD3/anti-CD28 stimulated T-cells without inhibitor), read-out: IL-2 secretion Anti-CD3/Anti-CD28 stimulation.
The mark [10] stands for this setting: 1 μM Cbl-b inhibitor, fold change over baseline (anti-CD3/anti-CD28 stimulated T-cells without inhibitor), read-out: IL-2 secretion Anti-CD3/Anti-CD28 stimulation.
Setting [11] is: 0.3 μM Cbl-b inhibitor, fold change over baseline (anti-CD3/anti-CD28 stimulated T-cells without inhibitor), read-out: CD25 staining Anti-CD3/Anti-CD28 stimulation.
[12] abbreviates: 1 μM Cbl-b inhibitor, fold change over baseline (anti-CD3/anti-CD28 stimulated T-cells without inhibitor), read-out: CD25 staining Anti-CD3/Anti-CD28 stimulation.

Cbl-b (residues 36-427), sequence (Q13191 36-427): as above

As for `Cn1cnnc1CC1(c2cccc(NC(=O)c3cc(CN4CC[C@H](F)C4)cc(C4CC4)n3)c2)COC1` [Compound 496, 6-cyclopropyl-4-{[(3S)-3-fluoropyrrolidin-1-yl]methyl}-N-(3-{3-[(4-methyl-1,2,4-triazol-3-yl)methyl]oxetan-3-yl}phenyl)pyridine-2-carboxamide], the figures for the IC50 at Cbl-b [1] and on Cbl-b [4] were < 100 nM and ≤ 100 nM, respectively. Also, the fold induction at 0.3 µM is > 7.5 in the test on T-cell [2] (setting [5]) and 1.51 to 1.75 with T-cell [3] (setting [7]). Moreover, the fold induction at 1 µM in the test on T-cell [2] (setting [6]) is > 7.5; in the test on T-cell [3] (setting [8]), 1.51 to 1.75. In addition, on Cbl-b (residues 36-427), the Kd was < 100 nM.
`C[C@@H](c1cc2c(c(C(F)(F)F)c1)CN(c1cccc(C3(Cc4nncn4C)COC3)c1)C2=O)N1CCC(C)(F)CC1` [Example 553a, (S)-6-(1-(4-fluoro-4-methylpiperidin-1-yl)ethyl)-2-(3-(3-((4-methyl-4H-1,2,4-triazol-3-yl)methyl)oxetan-3-yl)phenyl)-4-(trifluoromethyl)isoindolin-1-one]: the IC50 at Cbl-b [1] is < 100 nM; on Cbl-b [4] it was ≤ 100 nM. Moreover, the fold induction at 0.3 µM is > 7.5 in the test with T-cell [2] (setting [5]) and > 1.76 with T-cell [3] (setting [7]). The fold induction at 1 µM with T-cell [2] (setting [6]) was > 7.5; with T-cell [3] (setting [8]), > 1.76. The Kd on Cbl-b (residues 36-427) was < 100 nM.
As to `C[C@H](c1cc2c(c(C(F)(F)F)c1)CN(c1cccc(C3(C(F)(F)c4nncn4C)COC3)c1)C2=O)N1CC[C@H](F)C1` [Example 571, 2-(3-(3-(difluoro(4-methyl-4H-1,2,4-triazol-3-yl)methyl)oxetan-3-yl)phenyl)-6-((R)-1-((S)-3-fluoropyrrolidin-1-yl)ethyl)-4-(trifluoromethyl)isoindolin-1-one], the IC50 is < 100 nM on Cbl-b [1] and ≤ 100 nM at Cbl-b [4]. Moreover, the fold induction at 0.3 µM with T-cell [2] (setting [9]) was > 7.5; in the test with T-cell [3] (setting [11]), > 1.76. Also, the fold induction at 1 µM in the test with T-cell [2] (setting [10]) is > 7.5; in the test on T-cell [3] (setting [12]) it was > 1.76. The Kd at Cbl-b (residues 36-427) is < 100 nM.
As for `C[C@H](c1cc2c(c(C(F)(F)F)c1)CN(c1cccc(C3([C@@H](F)c4nncn4C)COC3)c1)C2=O)N1CCC2(CC2)C1` [Example 576, 6-((R)-1-(5-azaspiro[2.4]heptan-5-yl)ethyl)-2-(3-(3-((R)-fluoro(4-methyl-4H-1,2,4-triazol-3-yl)methyl)oxetan-3-yl)phenyl)-4-(trifluoromethyl)isoindolin-1-one], the results for the IC50 on Cbl-b [1] and at Cbl-b [4] were < 100 nM and ≤ 100 nM, respectively. The results for the fold induction at 0.3 µM with T-cell [2] (setting [9]) and in the test with T-cell [3] (setting [11]) were > 7.5 and > 1.76, respectively. Moreover, the fold induction at 1 µM in the test with T-cell [2] (setting [10]) is > 7.5; in the test with T-cell [3] (setting [12]), > 1.76. The dissociation constant (Kd) on Cbl-b (residues 36-427) is < 100 nM.
On to `Cn1cnnc1CC1(c2cccc(N3Cc4c(cc(CN5CCC(C)(F)CC5)cc4C(F)(F)F)C3=O)c2)COC1` [Example 620, 6-((4-fluoro-4-methylpiperidin-1-yl)methyl)-2-(3-(3-((4-methyl-4H-1,2,4-triazol-3-yl)methyl)oxetan-3-yl)phenyl)-4-(trifluoromethyl)isoindolin-1-one], for which the results for the IC50 at Cbl-b [1] and at Cbl-b [4] were < 100 nM and ≤ 100 nM, respectively. Besides, the values for the fold induction at 0.3 µM in the test with T-cell [2] (setting [9]) and with T-cell [3] (setting [11]) were > 7.5 and 1.31 to 1.5, respectively. Also, the fold induction at 1 µM is > 7.5 in the test on T-cell [2] (setting [10]) and 1.31 to 1.5 in the test on T-cell [3] (setting [12]). Also, the Kd at Cbl-b (residues 36-427) was < 100 nM.
With `Cn1cnnc1[C@@H](F)C1(c2cccc(N3Cc4c(cc(CN5CCC(F)CC5)cc4C(F)(F)F)C3=O)c2)COC1` [Example 670a, (S)-2-(3-(3-(fluoro(4-methyl-4H-1,2,4-triazol-3-yl)methyl)oxetan-3-yl)phenyl)-6-((4-fluoropiperidin-1-yl)methyl)-4-(trifluoromethyl)isoindolin-1-one], the IC50 is < 100 nM at Cbl-b [1] and ≤ 100 nM on Cbl-b [4]. Besides, the fold induction at 0.3 µM lay within 5 to 7.5 in the test with T-cell [2] (setting [9]) and 1.51 to 1.75 in the test on T-cell [3] (setting [11]). In addition, the fold induction at 1 µM with T-cell [2] (setting [10]) was > 7.5; with T-cell [3] (setting [12]) it was 1.51 to 1.75. Besides, the Kd at Cbl-b (residues 36-427) is < 100 nM.
In the case of `Cn1cnnc1[C@H](F)C1(c2cccc(N3Cc4c(cc(CN5CCC(F)CC5)cc4C(F)(F)F)C3=O)c2)COC1` [Example 670b, (R)-2-(3-(3-(fluoro(4-methyl-4H-1,2,4-triazol-3-yl)methyl)oxetan-3-yl)phenyl)-6-((4-fluoropiperidin-1-yl)methyl)-4-(trifluoromethyl)isoindolin-1-one], the values for the IC50 on Cbl-b [1] and at Cbl-b [4] were < 100 nM and ≤ 100 nM, respectively. Besides, the fold induction at 0.3 µM with T-cell [2] (setting [9]) is > 7.5; in the test with T-cell [3] (setting [11]) it was > 1.76. Besides, the fold induction at 1 µM in the test on T-cell [2] (setting [10]) was > 7.5; with T-cell [3] (setting [12]), > 1.76. Besides, the Kd at Cbl-b (residues 36-427) was < 100 nM.
